Measured values taken from a melting point compilation (Tetko et al.).

| SMILES | melting point [°C] |
| --- | --- |
| O=Cc1cccc2c([N+](=O)[O-])cccc12 | 136 |
| Cc1cc(C)c(C[S+]([O-])Cc2c(C)cc(C)cc2C)c(C)c1 | 210 |
| FC(Cl)C(F)(F)F (stereo not drawn) | -199 |
| CC#CC(C)CC (stereo not drawn) | -108 |
| CCCCCCCCn1c(=O)c2cc3c(OC)c4cc5c(=O)n(CCCCCCCC)c(=O)c5cc4c(OC)c3cc2c1=O | 238 |
| O=C(O)COc1ccc([N+](=O)[O-])cc1 | 182 to 188 |
| CCN(CC)c1ccc2cc(C(=O)c3cc4ccc(N(CC)CC)cc4oc3=O)c(=O)oc2c1 | 214 |
| CC(=O)Nc1c(C(=O)Cc2c(C)cc(C)cc2C)oc2ccccc12 | 161 to 162 |
| Cc1cc(N=Nc2ccccc2)ccc1N=Nc1ccccc1 | 109 |
| CC12C=CC(=O)C=C1CCC1C3CC(O)C(O)(C(=O)CO)C3(C)CC(O)C12F (stereo not drawn) | 269 |
| Fc1c(F)c(F)c(Br)c(Br)c1F | 12 |
| CCOC(=O)C(C#N)=C(N)c1cc2cc(Br)cc(Br)c2oc1=O | 258 to 260 |
| COC(=O)c1cc(OCC(F)(F)F)ccc1OCC(F)(F)F | 40 to 41 |
| CC(C=CC=C(C)C=CC1=C(C)CCCC1(C)C)=CC=CC=C(C)C=CC=C(C)C=CC1=C(C)CC(O)CC1(C)C (stereo not drawn) | 160 |
| COC1CC2C3(C)CCCC2(COC3=O)C2C(OC(C)=O)CC3C(C)C(=O)C12C3O (stereo not drawn) | 105 |
| CCCCOC(=O)C(C)Oc1ccc(Oc2ccc(C(F)(F)F)cn2)cc1 (stereo not drawn) | 13 |
| CN(C)C(=O)Cl | -33 |
| CCCCCCCCCCCCCCCCO | 51.1 |
| c1ccc(C2=NN(c3ccccc3)C2)cc1 | 138 |
| CCCCCCCCCC(=O)CCC | 19 |
| COc1nc(C)nc(NC(=O)NS(=O)(=O)c2ccccc2Cl)n1 | 176 |
| CC1(C)OC2OC(CO)C(O)C2O1 (stereo not drawn) | 68 to 70 |
| CC1(c2ccccc2)CC(C(=NOCC(=O)c2ccccc2)c2cc3ccccc3o2)C1 (stereo not drawn) | 154 to 155 |
| COc1ccc(F)c(O)c1F | 75 |
| O=C1C(c2ccc(Br)cc2)=C(O)c2ccccc21 | 137 to 138 |

| SMILES | melting point [°C] |
| --- | --- |
| CCCN(CCC)C(=O)C(CCC(=O)O)NC(=O)c1ccccc1 (stereo not drawn) | 142 |
| O=[N+]([O-])c1ccc(C=NN(c2ccccc2)P(=O)(N2CC2)N2CC2)cc1 | 150 |
| Cc1c(Br)cc(N)cc1Br | 91 |
| CN(CCO)c1cc(C(F)(F)F)nc2ccccc12 | 90.5 to 92.5 |
| CCOC(=O)C1=C(C)NC(C)=C(C(=O)OCC)C1c1ccco1 | 164 |
| CC1CCC2(O)C(C)(C)C3CCC2(C)C1C3 (stereo not drawn) | 56 |
| C=C(Br)CC1(C(C)CC)C(=O)NC(=O)NC1=O (stereo not drawn) | 132 |
| O=C(O)c1cc(I)cc(I)c1I | 223 to 228 |
| CCCCCCC#CC(=O)O | -8 |
| CCCc1ccc(-c2ccc(C(=O)O)cc2)cc1 | 226 |
| CC(=O)C1(C)CCC2C3C=C(C)C4=CC(=O)CCC4(C)C3CCC21C (stereo not drawn) | 144 |
| Clc1cc(Cl)c(-c2c(Cl)cccc2Cl)c(Cl)c1 | 85 |
| COc1cc2c(cc1OC)C(c1ccccc1)=NCC2 | 121 to 125 |
| Cc1ccn(-c2ccccc2)n1 | 37 |
| CCOc1ccc(-c2nnc3n2NC(C=Cc2ccccc2)S3)cc1 (stereo not drawn) | 226 to 228 |
| CC(=O)c1c(-c2ccccc2)cc2ccccc2c1O | 55 |
| Nc1ccc(Cl)nn1 | 210 to 211 |
| N#Cc1c(F)cccc1Sc1ccc(Cl)cc1 | 70 |
| O=C(O)C1(C2=CCCCC2)CCCCC1 | 79 |
| Nc1ccc(-c2ccc3nn(-c4ccccc4)nc3c2)cc1 | 224 to 225 |
| COc1ccc(N=C(CNc2ccc(OC)cc2)Nc2ccc(OC)cc2)cc1 | 158 to 159 |
| COc1ccc(N=C=S)c([N+](=O)[O-])c1 | 111 to 113 |
| Cc1cccc(NN=C2C(=O)N(C)C(=O)N(C)C2=O)c1 | 228 |
| Cc1cc(Cl)cc(Cl)c1S(N)(=O)=O | 168 to 170 |
| O=C(O)CSCSCC(=O)O | 125 to 128 |

| SMILES | melting point [°C] |
| --- | --- |
| Cc1n[nH]c2c(=O)n(Cc3ccc(Cl)cc3)c(C)nc12 | 218 to 220 |
| C1=CC2=CC=C(O2)C2=CC=C(C=CC3=CC=C(O3)C3=CC=C1O3)O2 | 270 to 271 |
| COc1ccc(-n2ncc(C(=O)O)c2C)cc1 | 212 to 213 |
| Cc1[nH]c2c([N+](=O)[O-])cccc2c1C | 160 to 165 |
| COc1ccccc1-c1nnc2n1CN(c1ccccc1)CS2 | 165 |
| CC(=O)c1ccc([N+](=O)[O-])s1 | 106 |
| Cc1cc(C(C)(C)c2ccc(O)c(C)c2)ccc1O | 139 |
| Cn1c2ccccc2c(=O)c2ccccc21 | 204 to 207 |
| Nc1cc2[nH]c(=O)c(C(=O)c3ccccc3)cc2cc1C=O | 278 to 279 |
| COC(=O)c1cc(Br)c(C)c(Br)c1 | 88 |
| CC(=O)Nc1ccc2c(NC(C)=O)c(O)ccc2c1 | 235 |
| CCc1ccccc1-n1c(C)nc2ccccc2c1=O | 81 |
| Cc1cc(O)c(C(=O)c2ccccc2)cc1Cl | 138 to 142 |
| Cc1cccnc1C(N)=NO | 94 to 95 |
| CC(C)(C)CC(C)(C)c1ccc(O)c(Cc2ccc(Cl)cc2Cl)c1 | 78 |
| O=C(Nc1ccc(Cl)cc1)Nc1ccc(Cl)c(Cl)c1 | 256 |
| COc1ccc(-c2cc3c(C#N)c(N)[nH]n3c(=O)c2C#N)cc1 | 297 |
| Cc1cc(O)cc(C)c1C#N | 176 to 177 |
| CS(=O)(=O)C1CS(=O)(=O)CC1O (stereo not drawn) | 200 to 210 |
| COc1ncnc(NS(=O)(=O)c2ccc(N)cc2)c1OC | 192 |
| O=[N+]([O-])c1cccnc1Sc1ccc(Cl)cc1 | 127 to 129 |
| CC1CC2C3CCC4=CC(=O)C=CC4(C)C3C(=O)CC2(C)C1(O)C(=O)CO (stereo not drawn) | 202 |
| Cc1cc(Br)cc(C)c1O | 76 |
| CC1=CCC2CC1C2(C)C (racemic) | -55 |
| CSC(=CC(=C(C#N)C#N)c1ccc(Br)cc1)SC | 138 to 142 |

| SMILES | melting point [°C] |
| --- | --- |
| N#CCS(=O)(=O)c1ccc(Cl)cc1 | 171 |
| NCCNCCNCCN | -35 |
| OC1OCCOC1O (stereo not drawn) | 101 |
| COc1ccc(/C=C2\CN(S(=O)(=O)c3ccc(C)cc3)c3ccccc3N2S(=O)(=O)c2ccc(C)cc2)cc1 | 152 |
| O=CC1=Cc2cc(O)ccc2OC1 | 165 |
| CC(O)CCc1ccc2c(c1)N(C(=O)c1ccccc1)C(C)CC2 (stereo not drawn) | 77 |
| Nc1ccc(Cl)cc1N | 76 |
| c1ccc2c(c1)cc1c3ccccc3c3cccc4ccc2c1c43 | 234 |
| C=CC1(C)CCC2C(=CCC3C(C)(C(=O)O)CCCC23C)C1 (stereo not drawn) | 160 |
| CCC1(N2CCCCC2)C(=O)NC(=O)NC1=O | 215 |
| CCCCCc1ccc(-c2ccc(C#N)cc2)cc1 | 34 |
| CC(=O)c1c(Cl)cccc1Cl | 43 |
| OC(C1CCCCC1)(C1CCCCC1)C1CCCCC1 | 94 to 96 |
| O=c1c2ccccc2cc2c3ccccc3ccn12 | 147 |
| CN1CCN(c2ccccc2N)CC1 | 101 to 102 |
| CCOC(=O)c1c(C)cc(O)nc1O | 219 |
| CC(=O)C(=Cc1ccc(-c2cccc([N+](=O)[O-])c2)o1)C(C)=O | 153 to 154 |
| CCOC(=O)c1ccc(O)c(O)c1 | 134 |
| Cc1cncc(N2CCC(C(=O)O)CC2)n1 | 151 to 152 |
| CCOC(=O)c1c(C)oc(NC(=O)Nc2cccc(C(F)(F)F)c2)c1C(=O)OCC | 153 to 155 |
| OCCN(CCO)c1nc(N2CCCCC2)c2nc(N(CCO)CCO)ncc2n1 | 158 |
| COC(=O)c1c(C)n[nH]c1-c1cc(C)on1 | 168 to 170 |
| O=C(O)Cc1ccc(I)cc1 | 138 |
| COC(=O)CC(=O)c1cncc(Br)c1 | 88 to 93 |
| CCN(CC)C(=O)c1ccccc1CC(=O)c1ccccc1C | 47 |

| SMILES | melting point [°C] |
| --- | --- |
| CN(C)CCOc1ccccc1C(=O)O | 108 to 109 |
| O=C1CCCCCCC1 | 40.5 |
| CC(C)(C)c1cc(S)cc(C(C)(C)C)c1O | 76 |
| Cc1ccc(C(=O)NN)cc1 | 117 |
| Cc1cc(C)c(Cc2c(C)cc(C)cc2C)c(C)c1 | 130 |
| C/C=C(C)/C=C/C=C(C)C | -35.4 |
| Cc1ccc2c(c1[N+](=O)[O-])C(=O)c1c(Cl)c(Cl)c(Cl)c(Cl)c1C2=O | 262 |
| Cc1cc([N+](=O)[O-])cnc1Br | 57 |
| c1ccc(Cc2ccc3ccccc3c2)cc1 | 58 |
| C=COCC(C)C | -112 |
| Cc1ccc(C(F)(F)F)cc1N | 38 |
| CC(CN(CC(=O)O)CC(=O)O)N(CC(=O)O)CC(=O)O (stereo not drawn) | 241 to 243 |
| N#Cc1cccnc1N1CCNCC1 | 76 to 78 |
| CN(C)NC(=O)CCC(=O)O | 158 to 162 |
| CSc1nc(=O)n(Cc2ccccc2)c2c1CCC2 | 94 to 96 |
| N#Cc1cc(-c2ccccc2)oc1N | 196 to 197 |
| CCC(CC)Nc1c([N+](=O)[O-])cc(C)c(C)c1[N+](=O)[O-] | 58 |
| CCCCC(CC)(CO)CO | 43.8 |
| CN1CCN(Cc2ccccc2CO)CC1 | 62 to 64 |
| COc1cc(C(=O)OCc2cccc(COC(=O)c3cc(OC)c(OC)c(OC)c3)n2)cc(OC)c1OC | 119 |
| Clc1ccc2nc(N3CCCNCC3)sc2c1 | 103 to 105 |
| O=C(O)c1ccc(-c2ncccn2)cc1 | 238 to 240 |
| CC(C)(C)c1cc(C(C)(C)C)c2oc(C(=O)O)cc(=O)c2c1 | 229 to 236 |
